Test results as given in patent publication US12064425B2, “Compositions and methods for targeting a viral infection” (priority 2018, dated 2024).
“Also recorded” adds a separate entry of the source. Like-named read-outs stand apart in the source and are kept apart here.

Tests used:
[1] = target: HIV-1 Env (Human immunodeficiency virus type 1, UniProt Q71014)
[2] = target: gp41-inter (Human immunodeficiency virus type 1, UniProt Q71014); assay type: binding, HIV-1
[3] = system: 2F5 Fab; test: SPR analysis of compound binding to 2F5 Fab
[4] = system: HIV-1 Env pseudoviruses; assay type: cell-based
[5] = target: 92UG037.8 HIV-1 Env W666A (Human immunodeficiency virus type 1, UniProt Q71014, W659A); assay type: cell-based
[6] = system: Env-expressing cells, CD4- and CCR5-expressing cells
[7] = system: TZM.bl cells
[8] = system: gp41-inter binding to 2F5 Fab; set-up: species or system HIV-1
[9] = system: gp41-inter binding to 240D Fab; set-up: species or system HIV-1

Cc1cc(N)cc[n+]1CCCCCCCCCC[n+]1ccc(N)cc1C [Compound S2C9]
inhibition potency in the cell-cell fusion assay compared to dequalinium [1]: significant decreases in potency

Nc1cc[n+](CCCCCCCCCC[n+]2ccc(N)c3ccccc32)c2ccccc12 [Compound S2C1]
inhibition potency in the cell-cell fusion assay compared to dequalinium [1]: significant decreases in potency

Nc1cc[n+](CCCCCCCCCC[n+]2ccc(N)c3cc(Br)ccc32)c2ccc(Br)cc12 [Compound S2C7]
inhibition potency in the cell-cell fusion assay compared to dequalinium [1]: modestly improved potency

c1ccc2c(c1)ccc[n+]2CCCCCCCCCC[n+]1cccc2ccccc21 [Compound S2C10]
binding to gp41-inter (in words) [2]: no binding | inhibition potency in the cell-cell fusion assay compared to dequalinium [1]: significant decreases in potency

Cc1cc(N)c2ccccc2[n+]1CCCCCCCCCC[n+]1c(C)cc(N)c2ccccc21 [dequalinium, quinolinium,1,1′-(1,10-decanediyl)-bis(4-amino-2-methyldiiodide)]
binding to 2F5 ([3]; SPR): no binding | inhibition of HIV-1 infectivity versus MuLV control [4]: greater inhibition to several HIV-1 isolates | resistance of mutant Env to inhibition of cell-cell fusion versus wildtype Env [5]: significantly more resistant | inhibition of cell-cell fusion mediated by Envs of primary HIV-1 isolates of different clades [1]: can also target Envs from multiple primary HIV-1 isolates of different clades; also recorded: specifically inhibited cell-cell fusion | cytotoxicity by an assay measuring ATP concentration [6]: minimal level of cytotoxicity | cytotoxicity in the viral infectivity assay [7]: more cytotoxicity than in the cell-cell fusion assay

Cc1cc(N)c2ccccc2n1 [4-aminoquinaldine]
activity in blocking HIV-1 Env mediated cell-cell fusion (in words) [1]: no activity

Nc1c2c([n+](CCCCCCCCCC[n+]3c4c(c(N)c5ccccc53)CCC4)c3ccccc13)CCC2 [Compound S2C3]
binding to 2F5 [3]: no binding | competition with 2F5 for binding to gp41-inter [8]: competed with 2F5 for binding to gp41-inter | competition with 240D Fab for binding to gp41-inter [9]: not with a cluster I antibody, 240D Fab | potency of inhibition of viral infectivity compared to dequalinium [4]: improvement in potency | inhibition potency in the cell-cell fusion assay compared to dequalinium [1]: significant improvement
